Data from patent publication US11702403B2, “EAAT2 activators and methods of using thereof” (OHIO STATE INNOVATION FOUNDATION, priority 2018, dated 2023).
Counter-ions that a name gives are not always drawn.

Assays:
GSK3β = experiment: Phosphorylation state of kinases in forebrain TCL of rTg4510 mice; assay type: in vivo; conditions: within one hour of treatment, single dose
Procedure: (§1) FIGS. 7A and 7B illustrate the effect of compound treatment on phosphorylated tau in total lysates (TCL) and in the Sarkosyl insoluble (P3) fraction (n=4/group). Dashed-line represents expression in rTg4510 vehicle group.
(§2) To identify which kinase/phosphatase is involved, forebrain TCL samples were collected from rTg4510 mice one-hour after a single dose. The phosphorylation (activation) state of kinases that have been reported to target tau as a substrate were assessed. […] This form of phosphorylation inhibits GSK3β activity. Therefore, inactivation of the GSK3β kinase may mediate reduced tau phosphorylation in rTg4510 mice after compound treatment.

tau = experiment: Tau expression and phosphorylation in total cell lysates and Sarkosyl insoluble fractions of rTg4510 forebrains; assay type: in vivo, mice
Description: as §1
We, therefore, investigated if the compound could reduce toxic forms of tau. […] Four antibodies, which recognized different phosphorylation sites or pathological forms of tau, were used: PHF1 recognized Ser 396 & Ser404; AT8 recognized Ser202 & Thr205; MC-1 recognized neurofibrillary tangles and Tau5 recognized all of tau (phosphorylated and non-phosphorylated isoforms). […] There was an especially significant reduction in the 64 kDa (hyperphosphorylated) variant for each antibody tested; it has been reported that the 64 kDa variant was strongly correlated with neurodegeneration.
as §2, with “To identify which kinase/phosphatase is involved, forebrain TCL samples were collected from rTg4510 mice one-hour after a single dose.” left out

human EAAT2 = experiment: EAAT2 protein levels in PA-EAAT2 cells by Western blot; assay type: cell-based; conditions: for concentration that reaches maximum activity / Fold increase for EAAT2 at indicated concentration (maximum activity): PA-EAAT2 cells, 24 hr; for concentration that reaches maximum activity: tested 0.0375-10 μM; for Fold increase for EAAT2 at indicated concentration (maximum activity): EAAT2 protein relative to DMSO
Procedure: Compounds were evaluated in PA-EAAT2 cells, a primary astrocyte stably expressing human EAAT2 mRNAs (Kong et al., J Clin Invest. 2014:1255-67). Cells were treated with compound at 0.0375, 0.075, 0.15, 0.3, 0.6, 1.25, 2.5, 5, 10 μM for 24 hr and then harvested for measuring EAAT2 protein levels by Western blot analysis.

EAAT2 [1] = experiment: EAAT2 protein levels in brains of Beagle dogs by Western blot; assay type: in vivo; conditions: oral 20 mg/kg; 0.5, 4, 24 hours post-treatment and seven daily treatment
[2] = tested on: CA3-CA1 LTP in the hippocampus; experiment: Long-term potentiation (LTP) in acute hippocampal slices of treated wild-type mice; assay type: in vivo; conditions: vs vehicle
Procedure: Mice were treated with compound at 40 mg/kg (or as depicted) and forebrains were harvested for the gliosome preparation 24 hr (or as described) post-treatment. FIG. 2A: Western blots show dose-dependent increase of EAAT2 protein levels. FIG. 2B: Time-dependent fold increase in EAAT2 protein expression in response to compound treatment at 4 hours (1.54±0.13) and 24 hours (1.98±0.19) post-treatment. Quantification of EAAT2 expression time course (normalized to flotilin; n=4/group). Data represented as mean SEM and analyzed using one-way ANOVA with Tukey post-hoc test. *p<0.05, **p<0.01. FIG. 2C: Compound treatment enhances CA3-CA1 LTP in the hippocampus. Mice were treated with vehicle or compound for seven days and acute hippocampal sections were collected for LTP recordings. […] Data represented as mean SEM analyzed using one-way ANOVA with Bonferroni post-hoc tests. […]
At 24 hours post-treatment, mice were euthanized and forbrains were harvested. […] Acute hippocampal slices were then collected and assessed for changes in long-term potentiation (LTP).
Wild-type C57BL/6 mice (2-3 months old) were treated orally with compound 101 at 0.01, 0.033, 0.1, 0.33, 1, 3.33, 10, 20, 40, 60, and 100 mg/kg/day (voluntary ingestion of compound in honey) for seven or 28 days. […] Mice were then euthanized and acute hippocampal slices were collected and assessed for changes in long-term potentiation (LTP).

[3] = tested on: mouse model of Gulf War Illness (GWI); experiment: Mouse model of Gulf War Illness, mood and cognitive behavior tests; assay type: in vivo, C57BL/6J mice
Procedure: Three months old C57BL/6J mice were randomly divided into three groups: control (no GWI, with vehicle), GWI with vehicle, and GWI with compound. For GWI groups, mice were exposed to GWI chemicals and chronic unpredictable stress daily for 6 weeks. GWI chemicals include pyridostigmine (1.3 mg/kg), permethrin (0.13 mg/kg), and DEET (40 mg/kg). The stress regimen included exposure to two different stressors each day. The stressors used in this study include restraint, cage rotation, hot stress, cold stress, predator sound, periods of darkness during the light cycle, wet bedding, replace bedding with water, cage tilt at 45 degree angle, and stroboscopic lighting. […] At 3-months post-exposure, mice were subjected to several behavior tests to assess mood and cognitive functions. These tests included dark and light exploration, elevated plus maze, novelty suppressed feeding, tail suspension open field, novel object recognition, and Barnes maze tests.
After one month of treatment, mice were evaluated for mood and cognitive functions.

EAAT2 [4] = experiment: EAAT2 protein levels in brains of wild-type C57BL/6 mice by Western blot; assay type: in vivo
Procedure: Mice then were euthanized and brains were harvested for examining EAAT2 protein levels by Western blot analysis.
Wild-type C57BL/6 mice (2-3 months old) were treated orally with compound 101 at 0.01, 0.033, 0.1, 0.33, 1, 3.33, 10, 20, 40, 60, and 100 mg/kg/day (voluntary ingestion of compound in honey) for seven or 28 days. Mice then were euthanized and brains were harvested for examining EAAT2 protein levels by Western blot analysis. […] To determine the functional consequences of the increased EAAT2 to the synaptic plasticity, wild-type mice were treated with vehicle or compound 101 at 0.033, 0.33, and 3.3 mg/kg for seven days. Mice were then euthanized and acute hippocampal slices were collected and assessed for changes in long-term potentiation (LTP).

EAAT2 [5] = experiment: EAAT2 protein levels in forebrain gliosomes of wild-type FVB/NJ mice by Western blot; assay type: in vivo; conditions: oral 1, 2.5, 5, 10, 20, 40 mg/kg, 24 hours post-treatment
Procedure: Mice were treated with compound at 40 mg/kg (or as depicted) and forebrains were harvested for the gliosome preparation 24 hr (or as described) post-treatment. FIG. 2A: Western blots show dose-dependent increase of EAAT2 protein levels. FIG. 2B: Time-dependent fold increase in EAAT2 protein expression in response to compound treatment at 4 hours (1.54±0.13) and 24 hours (1.98±0.19) post-treatment. Quantification of EAAT2 expression time course (normalized to flotilin; n=4/group). Data represented as mean SEM and analyzed using one-way ANOVA with Tukey post-hoc test. *p<0.05, **p<0.01. FIG. 2C: Compound treatment enhances CA3-CA1 LTP in the hippocampus. Mice were treated with vehicle or compound for seven days and acute hippocampal sections were collected for LTP recordings. […] Data represented as mean SEM analyzed using one-way ANOVA with Bonferroni post-hoc tests. Statistical significance denoted as ***p<0.001.
At 24 hours post-treatment, mice were euthanized and forbrains were harvested. Gliosomes (astrocytic processes) were then isolated for measuring EAAT2 protein levels by Western blot analysis. […] This induction could be seen as early as 4 hours post-treatment (FIG. 2B). […] Acute hippocampal slices were then collected and assessed for changes in long-term potentiation (LTP).

[6] = prevention: 20 mg/kg daily from beginning of 6-weeks exposure, tested 3-months post-exposure
[7] = treatment: 20 mg/kg at five months post-exposure, one month of treatment

For `CN(C)CCn1nc(-c2ccccn2)ccc1=O` [Compound 100, 2-(2-(dimethylamino)ethyl)-6-(pyridin-2-yl)pyridazin-3(2H)-one], which “phosphorylation of GSK3β at Ser9” value (GSK3β) is on record?
The value was “approximately 2 fold”.

What about the “total-tau (transgene expression)” value (tau; four months old, after two months of treatment) of the same compound?
The value was “no reduction in total-tau”.

What about the “total tau in the P3 fraction” value (tau; long-term treatment, Sarkosyl insoluble (P3) fraction) of the same compound?
Its value is “very significant reduction”.

And the “phosphorylated (AT8 and PHF1) and conformation specific (MC1) forms of tau” value (tau; long-term treatment, TCL and P3 fraction)?
The value was “reduced”.

What about the “all forms of tau in the P3 fraction” value (tau; single dose, 24 hours later) of the same compound?
The value was “very clear reduction”.

And the “pTau (AT8 and PHF1) in TCL” value (tau; single dose, 24 hours later)?
Its value is “significant decrease”.

What about the “total tau (Tau-5) or tau tangles (MC1) in TCL” value (tau; single dose, 24 hours later) of the same compound?
The value was “no change”.

And the “concentration that reaches maximum activity” value (human EAAT2)?
Its value is 0.6 µM.

And the EC50 (human EAAT2; primary astrocytes, read-out: EAAT2 induction in vitro - primary astrocytes (EC50))?
Its EC50 is 250 nM.

And the “EAAT2 protein levels in dog brains” value (EAAT2 [1])?
The value was “increased in a time-dependent manner”.

And the “CA1 field potential responses to stimulation of CA3 afferents (LTP)” value ([2]; 10 mg/kg for 7 days, up to 30 min after LTP induction)?
Its value is “significantly increased responses”.

What about the “anxiety- and depression-like behaviors” value [3, 6] of the same compound?
The value was “significantly reduced”.

And the cognitive functions [3, 6]?
The cognitive functions was “improved cognitive functions”.

And the “anxiety- and depression-like behaviors” value [3, 7]?
Its value is “reduced anxiety- and depression-like behaviors”.

What about the cognitive functions [3, 7] of the same compound?
Its cognitive functions is “significantly improved”.

What about the “EAAT2 induction in vivo in wild-type mice - 7-day dosing by p.o.” value (EAAT2 [4]; 10 mpk p.o., 7-day dosing) of the same compound?
The value was 1.63-fold @ 10 mpk.

What about the “EAAT2 induction in vivo in wild-type mice - 28-day dosing by p.o.” value (EAAT2 [4]; 10 mpk p.o., 28-day dosing) of the same compound?
Its value is 2.37-fold @ 10 mpk.

What about the “EAAT2 induction in vivo in wild-type mice - single dose by p.o.” value (EAAT2 [4]; 10 mpk p.o., single dose) of the same compound?
The value was 1.56-fold @ 10 mpk.

What about the “EAAT2 protein levels in gliosomes” value (EAAT2 [5]) of the same compound?
The value was “induced EAAT2 expression in a dose-dependent manner”.

Which results are given for `CNCCn1nc(-c2ccccn2)ccc1=O` [Compound 101, 2-(2-(Methylamino)ethyl)-6-(pyridin-2-yl)pyridazin-3(2H)-one hydrochloride]?
Fold increase for EAAT2 at indicated concentration (maximum activity) (human EAAT2): 2.6 ± 0.2 fold; concentration that reaches maximum activity (human EAAT2): 0.3 µM; CA1 field potential responses to stimulation of CA3 afferents (LTP) ([2]; 0.033, 0.33, and 3.3 mg/kg for seven days): significantly increased responses; EAAT2 protein levels in mouse brains (EAAT2 [4]; oral 0.01-100 mg/kg/day for seven or 28 days): dose-dependently increased

Which “Fold increase for EAAT2 at indicated concentration (maximum activity)” value (“Fold increase for EAAT2” for short) (human EAAT2) does the source give for `O=c1ccc(-c2ccccn2)nn1Cc1ncco1` [Compound 146, 2-(Oxazol-2-ylmethyl)-6-(pyridin-2-yl)pyridazin-3(2H)-one] here?
The value was 2.6 ± 0.2 fold.

And the “concentration that reaches maximum activity” value (human EAAT2)?
Its value is 2.5 µM.

`CN(C)CCOc1ccccc1NC(=O)Cn1nc(-c2ccccn2)ccc1=O` [Compound 203, N-(2-(2-(Dimethylamino)ethoxy)phenyl)-2-(6-oxo-3-(pyridin-2-yl)pyridazin-1(6H)-yl)acetamide] was tested. Which “Fold increase for EAAT2” value (human EAAT2) did it give?
Its value is 2.0 ± 0.2 fold.

What about the “concentration that reaches maximum activity” value (human EAAT2) of the same compound?
The value was 0.6 µM.

For `Cc1cc(-c2ccccn2)nn(CCN(C)C)c1=O` [Compound 195, 2-(2-(Dimethylamino)ethyl)-4-methyl-6-(pyridin-2-yl)pyridazin-3(2H)-one hydrochloride], which “Fold increase for EAAT2” value (human EAAT2) is on record?
Its value is 2.5 ± 0.2 fold.

And the “concentration that reaches maximum activity” value (human EAAT2)?
Its value is 0.3 µM.

`Cc1cc(=O)n(CCN(C)C)nc1-c1ccccn1` [Compound 196, N,N-2-(2-(dimethylamino)ethyl)-5-methyl-6-(pyridin-2-yl)pyridazin-3(2H)-one hydrochloride] was tested. Which “Fold increase for EAAT2” value (human EAAT2) did it give?
Its value is 4.2 ± 0.2 fold.

And the “concentration that reaches maximum activity” value (human EAAT2)?
Its value is 0.6 µM.
